One assay has as its target K. pneumoniae LpxC (Klebsiella pneumoniae subsp. pneumoniae, UniProt A6T4N9). Put plainly: LpxC Binding Assay (Rapid Fire MS assay). The class given is biochemical.
For the next assay, the system named is P. aeruginosa 209 PAO1. As to the kind of experiment: Bacterial susceptibility testing, MIC by broth microdilution (CLSI). The class given is cell-based. As to conditions: Pseudomonas aeruginosa, PAO1, broth microdilution, 35° C., 18-24 h; read-out: MIC P. aeruginosa 209 PAO1. A digest of the protocol: (§1)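 Broth microdilution per CLSI in cation-adjusted Mueller-Hinton broth, inoculum 3×10^5–7×10^5 CFU/mL, 2-fold serial drug dilutions in DMSO. Incubated in ambient air at 35° C for 18-24 h. MIC taken as lowest concentration preventing visible growth (OD600 nm<0.05).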
(Broth dilution looks for growth in wells or tubes with falling amounts of substance.)

The next assay has as its system P. aeruginosa ATCC27835. Described as above. In kind it is cell-based. The note with it: Pseudomonas aeruginosa, ATCC27835, broth microdilution, 35° C., 18-24 h; read-out: MIC P. aeruginosa ATCC27835. The procedure, abridged: as §1
The next assay deals with K. pneumoniae ATCC13883. The description is as above. In kind it is cell-based. As to conditions: Klebsiella pneumoniae, ATCC13883, broth microdilution, 35° C., 18-24 h; read-out: MIC K. pneumoniae ATCC13883. The procedure, abridged: as §1
The next assay concerns E. coli ATCC25922. The description is as above. The class given is cell-based. The note with it: Escherichia coli, ATCC25922, broth microdilution, 35° C., 18-24 h; read-out: MIC E. coli ATCC25922. The procedure, abridged: as §1
The target in a further assay is T1, P. aeruginosa LpxC (Pseudomonas aeruginosa, UniProt P47205).
T1 sequence (P47205 1-303): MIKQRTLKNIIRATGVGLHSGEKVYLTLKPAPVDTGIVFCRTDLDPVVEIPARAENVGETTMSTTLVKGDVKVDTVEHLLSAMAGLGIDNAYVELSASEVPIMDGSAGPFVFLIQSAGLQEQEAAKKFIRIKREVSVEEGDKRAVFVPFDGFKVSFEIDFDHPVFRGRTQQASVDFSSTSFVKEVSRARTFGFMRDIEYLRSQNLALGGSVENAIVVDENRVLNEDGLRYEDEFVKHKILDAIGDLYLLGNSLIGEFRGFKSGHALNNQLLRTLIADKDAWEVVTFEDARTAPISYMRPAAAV
Put plainly: LpxC Binding Assay (Rapid Fire MS assay). The class given is biochemical. The method, then:
(§2) IC50 values against E. coli and P. aeruginosa LpxC are determined using a Rapid Fire MS assay as previously described J. Med. Chem. 2012, 55, 1662-1670.

A further assay concerns the target E. coli LpxC (Escherichia coli, UniProt P0A725). As to the kind of experiment: LpxC Binding Assay (Rapid Fire MS assay). The class given is biochemical. The method, then: as §2

In brackets after ≈: the same amount, converted by molar mass.

One may read the IC50 as the midpoint of a concentration-inhibition curve. A low value points to greater potency. The term MIC denotes the smallest concentration in the dilution series that meets the test's criterion for growth inhibition.

Chain of E. coli LpxC (P0A725 whole entry): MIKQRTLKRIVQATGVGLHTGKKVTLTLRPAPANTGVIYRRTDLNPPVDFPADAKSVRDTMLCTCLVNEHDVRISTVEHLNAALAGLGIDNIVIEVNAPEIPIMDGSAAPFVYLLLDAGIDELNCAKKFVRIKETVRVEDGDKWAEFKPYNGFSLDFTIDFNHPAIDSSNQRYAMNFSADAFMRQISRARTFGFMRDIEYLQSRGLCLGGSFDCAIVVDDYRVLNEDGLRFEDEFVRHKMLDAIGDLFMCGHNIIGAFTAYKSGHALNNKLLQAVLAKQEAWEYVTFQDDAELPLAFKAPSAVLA
Chain of K. pneumoniae LpxC (A6T4N9 whole entry): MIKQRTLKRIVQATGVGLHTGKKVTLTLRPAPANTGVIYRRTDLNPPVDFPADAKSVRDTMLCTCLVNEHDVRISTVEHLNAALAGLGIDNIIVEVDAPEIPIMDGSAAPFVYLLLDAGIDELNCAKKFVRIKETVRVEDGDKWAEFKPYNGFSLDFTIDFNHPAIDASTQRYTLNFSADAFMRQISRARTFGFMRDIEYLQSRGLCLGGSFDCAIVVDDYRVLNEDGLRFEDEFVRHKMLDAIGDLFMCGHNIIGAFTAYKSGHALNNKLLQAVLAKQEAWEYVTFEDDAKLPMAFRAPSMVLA

As to `C[C@H](O)c1nccn1[C@@H](/C=C/c1ccc(-c2ccc(OC3CCN(CCO)CC3)cc2)cc1)CCO` [Compound 18, (R,E)-3-(2-((S)-1-hydroxyethyl)-1H-imidazol-1-yl)-5-(4′-((1-(2-hydroxyethyl)piperidin-4-yl)oxy)-[1,1′-biphenyl]-4-yl)pent-4-en-1-ol], the 50% inhibitory concentration (IC50) was found to be 5.4 nM at K. pneumoniae LpxC, 50.1 nM at P. aeruginosa LpxC and 3.6 nM at E. coli LpxC. The minimum inhibitory concentration (MIC) in the assay with P. aeruginosa 209 PAO1 stood at 4 µg/mL (≈ 8.14 µM); in the assay on P. aeruginosa ATCC27835, 4 µg/mL (≈ 8.14 µM); in the assay with K. pneumoniae ATCC13883, 16 µg/mL (≈ 32.5 µM); in the assay on E. coli ATCC25922, 8 µg/mL (≈ 16.3 µM).

In the case of `C[C@H](O)c1nccn1[C@@H](/C=C(\F)c1ccc(-c2ccc(OCC(O)CN)cc2)cc1)CO` (single isomer, unassigned) [Compound 30, (S,Z)-4-(4′-((R)-3-amino-2-hydroxypropoxy)-[1,1′-biphenyl]-4-yl)-4-fluoro-2-(2-((S)-1-hydroxyethyl)-1H-imidazol-1-yl)but-3-en-1-ol; or (S,Z)-4-(4′-((S)-3-amino-2-hydroxypropoxy)-[1,1′-biphenyl]-4-yl)-4-fluoro-2-(2-((S)-1-hydroxyethyl)-1H-imidazol-1-yl)but-3-en-1-ol], the IC50 worked out at 7.6 nM on K. pneumoniae LpxC, 79.5 nM at P. aeruginosa LpxC and 5 nM at E. coli LpxC. The minimal inhibitory concentration (MIC) in the assay on P. aeruginosa 209 PAO1 was 8 µg/mL (≈ 18.1 µM); with P. aeruginosa ATCC27835, 8 µg/mL (≈ 18.1 µM); in the assay on K. pneumoniae ATCC13883, 32 µg/mL (≈ 72.5 µM); in the assay with E. coli ATCC25922, 16 µg/mL (≈ 36.2 µM).

In the case of `C[C@H](O)c1nccn1[C@@H](/C=C(\F)c1ccc(-c2ccc(OCC(N)CO)cc2)cc1)CO` (mixture of isomers) [Compound 11], the IC50 on K. pneumoniae LpxC is 4 nM; on P. aeruginosa LpxC, 31.3 nM; at E. coli LpxC, 2.7 nM. For the same compound, the MIC in the assay on P. aeruginosa 209 PAO1 was determined as 1 µg/mL (≈ 2.26 µM); in the assay with P. aeruginosa ATCC27835 it was 2 µg/mL (≈ 4.53 µM); in the assay with K. pneumoniae ATCC13883, 16 µg/mL (≈ 36.2 µM); in the assay with E. coli ATCC25922 it was 4 µg/mL (≈ 9.06 µM).

With `C[C@H](O)c1nccn1[C@@H](/C=C/c1ccc(-c2ccc(OC[C@H](O)CN)cc2)cc1)CO` [Compound 29, (S,E)-4-(4′-((R)-3-amino-2-hydroxypropoxy)-[1,1′-biphenyl]-4-yl)-2-(2-((S)-1-hydroxyethyl)-1H-imidazol-1-yl)but-3-en-1-ol], the half-inhibitory concentration (IC50) at K. pneumoniae LpxC was determined as 9.1 nM; on P. aeruginosa LpxC, 120 nM; at E. coli LpxC, 5.9 nM. For the same compound, the minimal inhibitory concentration (MIC) in the assay with P. aeruginosa 209 PAO1 came out at 8 µg/mL (≈ 18.9 µM); with P. aeruginosa ATCC27835, 4 µg/mL (≈ 9.44 µM); with K. pneumoniae ATCC13883, 64 µg/mL (≈ 151 µM); with E. coli ATCC25922, 32 µg/mL (≈ 75.6 µM).

For the compound `COC(CN)COc1ccc(-c2ccc(/C=C/[C@@H](CO)n3ccnc3[C@H](C)O)cc2)cc1` (mixture of isomers) [Compound 27, (2S,E)-4-(4′-(3-amino-2-methoxypropoxy)-[1,1′-biphenyl]-4-yl)-2-(2-((S)-1-hydroxyethyl)-1H-imidazol-1-yl)but-3-en-1-ol], the IC50 on K. pneumoniae LpxC is 6.2 nM; at P. aeruginosa LpxC, 41.2 nM; on E. coli LpxC it was 2.9 nM. In addition, the minimum inhibitory concentration (MIC) in the assay with P. aeruginosa 209 PAO1 stood at 4 µg/mL (≈ 9.14 µM); in the assay with P. aeruginosa ATCC27835, 4 µg/mL (≈ 9.14 µM); with K. pneumoniae ATCC13883, 32 µg/mL (≈ 73.1 µM); in the assay on E. coli ATCC25922, 8 µg/mL (≈ 18.3 µM).

Values taken from patent US20240150298A1, “ANTIBACTERIAL COMPOUNDS” (Blacksmith Medicines, Inc., priority 2021, published 2024).
